In the NIST ThermoML archive (doi:10.1021/je300776s):

Settings: for mass density: Vibrating tube method; for vapor or sublimation pressure: Closed cell (Static) method; for viscosity: Capillary tube (Ostwald / Ubbelohde) method; for surface tension liquid-gas: Capillary rise

FC(F)(F)/C=C/Cl [(E)-1-chloro-3,3,3-trifluoroprop-1-ene]
Settings	Critical temperature [K]	mass density [kg/m3]	vapor or sublimation pressure [kPa]
243.34 K, Liquid	–	1384.7	–
243.7 K, Liquid	–	1383.98	–
248.07 K, Liquid	–	1371.38	–
251.12 K, Liquid	–	1367.4	–
253.56 K, Liquid	–	1362.51	–
255.66 K, Liquid	–	1360.3	–
263.09 K, Liquid	–	–	29.85
263.36 K, Liquid	–	1341.34	–
271.16 K, Liquid	–	1323.65	–
272.95 K, Liquid	–	–	44.51
273.1 K, Liquid	–	–	47.57
273.17 K, Liquid	–	1319.65	–
282.95 K, Liquid	–	–	71.41
283.08 K, Liquid	–	–	72.74
283.26 K, Liquid	–	1296.48	–
290.16 K, Liquid	–	1280.22	–
291.98 K, Liquid	–	1276.01	–
293.05 K, Liquid	–	–	107.99
293.08 K, Liquid	–	–	106.52
293.21 K, Liquid	–	1273.37	–
302.85 K, Liquid	–	–	148.21
303.01 K, Liquid	–	–	152.1
312.25 K, Liquid	–	–	203.33
312.93 K, Liquid	–	–	210.08
321.85 K, Liquid	–	–	279.37
323 K, Liquid	–	–	282.13
332.93 K, Liquid	–	–	382.66
342.92 K, Liquid	–	–	502.28
352.84 K, Liquid	–	–	641.35
Liquid, Visual observation in an unstirred cell	438.75	–	–

Liquid
Settings	viscosity [mPa·s]
270.24 K, 100 kPa	0.705
292.03 K, 150 kPa	0.506
314.25 K, 300 kPa	0.3851
336.37 K, 500 kPa	0.294
353.52 K, 800 kPa	0.2369
379.56 K, 1350 kPa	0.1763

Settings	surface tension liquid-gas [mN/m]
273.15 K	16.48
298.15 K	12.68
323.15 K	9.01
